Results published in ChEMBL document CHEMBL3414518, “Development of selective DprE1 inhibitors: Design, synthesis, crystal structure and antitubercular activity of benzothiazolylpyrimidine-5-carboxamides” (Eur J Med Chem, 2015).
In brackets after ≈: the same amount, converted by molar mass.

Columns and labels:
[1] = tested on: Mycobacterium tuberculosis; experiment: Antitubercular activity against Mycobacterium tuberculosis H37Rv ATCC 27294 after 5 days by broth microdilution method; type: functional; conditions: H37Rv ATCC 27294, 120 h
[2] = Elimination half life in Sprague-Dawley rat at 20 mg/kg, po; type: ADME, organism-based; parameters: dose 20 mg/kg, route oral; conditions: in vivo, read-out: beta t1/2 (converted)
[3] = AUC (0 to infinity) in Sprague-Dawley rat at 10 mg/kg, iv; type: ADME, organism-based; parameters: time infinity, dose 10 mg/kg, route intravenous; conditions: plasma
[4] = Elimination half life in Sprague-Dawley rat at 10 mg/kg, iv; type: ADME, organism-based; parameters: dose 10 mg/kg, route intravenous; conditions: in vivo, read-out: beta t1/2 (converted)
[5] = Cmax in Sprague-Dawley rat at 20 mg/kg, po; type: ADME, organism-based; parameters: dose 20 mg/kg, route oral; conditions: in vivo
[6] = Cmax in Sprague-Dawley rat at 10 mg/kg, iv; type: ADME, organism-based; parameters: dose 10 mg/kg, route intravenous; conditions: in vivo
[7] = Tmax in Sprague-Dawley rat at 20 mg/kg, po; type: ADME, organism-based; parameters: dose 20 mg/kg, route oral; conditions: in vivo
[8] = AUC (0 to infinity) in Sprague-Dawley rat at 20 mg/kg, po; type: ADME, organism-based; parameters: time infinity, dose 20 mg/kg, route oral; conditions: plasma
[9] = Partition coefficient, log P of the compound in PBS at 10 mM at pH 7.4 after 5 hrs by shake flask method; type: physicochemical
[10] = Oral bioavailability in Sprague-Dawley rat at 20 mg/kg; type: ADME, organism-based; conditions: in vivo
[11] = Inhibition of Mycobacterium tuberculosis DprE1 using beta-D-ribofuranose as substrate after 7 mins by UV-Visible spectroscopy

Molecule `CC1=C(C(=O)Nc2nc3ccccc3s2)C(c2ccc(O)cc2)NC(=S)N1` (stereo not given) has an MIC [1] of 2.4 µM (≈ 0.952 µg/mL).

Work on `COc1ccc(C2NC(=S)NC(C)=C2C(=O)Nc2nc3ccccc3s2)cc1` (stereo not given) yielded an MIC [1] of 0.5 µM (≈ 0.205 µg/mL).

With `COc1cccc(C2NC(=S)NC(C)=C2C(=O)Nc2nc3ccccc3s2)c1O` (stereo not given) the MIC [1] was 1.4 µM (≈ 0.597 µg/mL).

Work on `CC1=C(C(=O)Nc2nc3ccccc3s2)C(c2ccc(C(F)(F)F)cc2)NC(=S)N1` (stereo not given) yielded an MIC [1] of 0.09 µM (≈ 0.0404 µg/mL), a half-life [2] of 6 h and an AUC(0-inf) [3] of 1.64 µg·h/mL. For the same molecule, the half-life [4] was 2.6 h, the Cmax [5] was 0.49 µg/mL and the Cmax [6] was 1.73 µg/mL. For the same molecule, the Tmax [7] was 0.6 h, the AUC(0-inf) [8] was 0.83 µg·h/mL and the logD at 5 h [9] was 2.92. For the same molecule, the bioavailability [10] was 50.6% and the IC50 [11] was 11.1 µM.

`CC1=C(C(=O)Nc2nc3ccccc3s2)C(c2ccc(F)cc2)NC(=S)N1` (stereo not given) gave an MIC [1] of 0.09 µM (≈ 0.0359 µg/mL), a half-life [2] of 5.8 h and an AUC(0-inf) [3] of 1.53 µg·h/mL. The half-life [4] was 2.8 h, the Cmax [5] was 0.34 µg/mL and the Cmax [6] was 1.5 µg/mL. The Tmax [7] was 0.6 h, the AUC(0-inf) [8] was 0.81 µg·h/mL and the logD at 5 h [9] was 2.18. It also gave a bioavailability [10] of 51.9% and an IC50 [11] of 9.2 µM.

With `CC1=C(C(=O)Nc2nc3ccccc3s2)C(c2ccc([N+](=O)[O-])cc2)NC(=S)N1` (stereo not given) the MIC [1] was 1.2 µM (≈ 0.511 µg/mL).

For `CC1=C(C(=O)Nc2nc3ccccc3s2)C(c2ccc(Cl)cc2)NC(=S)N1` (stereo not given), the MIC [1] was 0.32 µM (≈ 0.133 µg/mL).

`NNC(=O)c1ccncc1` [ISONIAZID] showed an MIC [1] of 0.2 µM (≈ 0.0274 µg/mL).

Molecule `CC1=C(C(=O)Nc2nc3ccccc3s2)C(c2ccccc2Cl)NC(=S)N1` (stereo not given) has an MIC [1] of 0.32 µM (≈ 0.133 µg/mL).

For `CC1=C(C(=O)Nc2nc3ccccc3s2)C(c2ccc(Br)cc2)NC(=S)N1` (stereo not given), the MIC [1] was 0.4 µM (≈ 0.184 µg/mL).

For `COC(=O)c1ccc(C2NC(=S)NC(C)=C2C(=O)Nc2nc3ccccc3s2)cc1` (stereo not given), the MIC [1] was 3.1 µM (≈ 1.36 µg/mL).

Molecule `COc1ccccc1C1NC(=S)NC(C)=C1C(=O)Nc1nc2ccccc2s1` (stereo not given) has an MIC [1] of 0.5 µM (≈ 0.205 µg/mL).

Work on `COc1ccc(C2NC(=S)NC(C)=C2C(=O)Nc2nc3ccccc3s2)cc1O` (stereo not given) yielded an MIC [1] of 1.2 µM (≈ 0.512 µg/mL).

`CC1=C(C(=O)Nc2nc3ccccc3s2)C(c2ccccc2O)NC(=S)N1` (stereo not given) showed an MIC [1] of 2.4 µM (≈ 0.952 µg/mL).

In the case of `CC1=C(C(=O)Nc2nc3ccccc3s2)C(c2ccccc2)NC(=S)N1` (stereo not given), the MIC [1] is reported as 0.08 µM (≈ 0.0304 µg/mL), the half-life [2] is reported as 5.5 h and the AUC(0-inf) [3] is reported as 1.5 µg·h/mL. The half-life [4] was 2.6 h, the Cmax [5] was 0.59 µg/mL and the Cmax [6] was 1.8 µg/mL. For the same molecule, the Tmax [7] was 0.5 h, the AUC(0-inf) [8] was 0.79 µg·h/mL and the logD at 5 h [9] was 2.03. It also gave a bioavailability [10] of 52.7% and an IC50 [11] of 7.7 µM.

Work on `CC1=C(C(=O)Nc2nc3ccccc3s2)C(c2ccc(N(C)C)cc2)NC(=S)N1` (stereo not given) yielded an MIC [1] of 0.08 µM (≈ 0.0339 µg/mL), a half-life [2] of 1.4 h and an AUC(0-inf) [3] of 1.48 µg·h/mL. The half-life [4] was 2.5 h, the Cmax [5] was 0.41 µg/mL and the Cmax [6] was 1.62 µg/mL. For the same molecule, the Tmax [7] was 0.5 h, the AUC(0-inf) [8] was 0.78 µg·h/mL and the logD at 5 h [9] was 2.22. For the same molecule, the bioavailability [10] was 52.7% and the IC50 [11] was 10.3 µM.

`CC1=C(C(=O)Nc2nc3ccccc3s2)C(c2ccc(Cl)cc2Cl)NC(=S)N1` (stereo not given) showed an MIC [1] of 0.25 µM (≈ 0.112 µg/mL).

Work on `CC1=C(C(=O)Nc2nc3ccccc3s2)C(c2cccc([N+](=O)[O-])c2)NC(=S)N1` (stereo not given) yielded an MIC [1] of 1.3 µM (≈ 0.553 µg/mL).

`COc1cc(C2NC(=S)NC(C)=C2C(=O)Nc2nc3ccccc3s2)cc(OC)c1O` (stereo not given) showed an MIC [1] of 1.2 µM (≈ 0.548 µg/mL).

`CC1=C(C(=O)Nc2nc3ccccc3s2)C(c2ccccc2[N+](=O)[O-])NC(=S)N1` (stereo not given) showed an MIC [1] of 1.2 µM (≈ 0.511 µg/mL).
